According to patent US11541062B2, “Methods of treating advanced prostate cancer” (priority 2017, dated 2023):
Changes are numbered by the printed parent chain.

Experiments:
[1] = Serum concentration of androgen analogs after intravenous injection, by LC/MS; format: in vivo; conditions: mouse, 50 ug, 50 μg intravenous, C57/B6 mice
Method: FIG. 8. C57B6 mice were intravenously injected with 50 μg of IVMDHT, IVNDHT, and IVDHT. Blood samples were collected at 1, 2, 4, and 8 hours (n=4) and the serum concentrations of the compounds were analyzed by liquid chromatography mass spectrometry. With reference to 2 hours on FIG. 8, the upper line represents IVMDHT; the middle line represents IVNDHT, and the lower line represents IVDHT.
To assess the stability of different androgen analogs, 50 μg of IVDHT, IVNDHT, and IVMDHT was intravenously injected into C57/B6 mice. Blood samples were collected from the mice at 1, 2, 4, and 8 hours and analyzed by liquid chromatography/mass spectrometry (n=4).

[2] = target: T1, endogenous AR (Homo sapiens, UniProt P10275, T878A); assay: AR nuclear translocation, immunostaining with anti-AR antibody and DAPI in LNCaP cells; format: cell-based; conditions: 48 hours without androgens, then 8 hours with compound
T1 construct: translocate endogenous AR into the nucleus in LNCaP cells; endogenous in cells; host or cells: LNCaP
T1 sequence (P10275 1-920 T878A): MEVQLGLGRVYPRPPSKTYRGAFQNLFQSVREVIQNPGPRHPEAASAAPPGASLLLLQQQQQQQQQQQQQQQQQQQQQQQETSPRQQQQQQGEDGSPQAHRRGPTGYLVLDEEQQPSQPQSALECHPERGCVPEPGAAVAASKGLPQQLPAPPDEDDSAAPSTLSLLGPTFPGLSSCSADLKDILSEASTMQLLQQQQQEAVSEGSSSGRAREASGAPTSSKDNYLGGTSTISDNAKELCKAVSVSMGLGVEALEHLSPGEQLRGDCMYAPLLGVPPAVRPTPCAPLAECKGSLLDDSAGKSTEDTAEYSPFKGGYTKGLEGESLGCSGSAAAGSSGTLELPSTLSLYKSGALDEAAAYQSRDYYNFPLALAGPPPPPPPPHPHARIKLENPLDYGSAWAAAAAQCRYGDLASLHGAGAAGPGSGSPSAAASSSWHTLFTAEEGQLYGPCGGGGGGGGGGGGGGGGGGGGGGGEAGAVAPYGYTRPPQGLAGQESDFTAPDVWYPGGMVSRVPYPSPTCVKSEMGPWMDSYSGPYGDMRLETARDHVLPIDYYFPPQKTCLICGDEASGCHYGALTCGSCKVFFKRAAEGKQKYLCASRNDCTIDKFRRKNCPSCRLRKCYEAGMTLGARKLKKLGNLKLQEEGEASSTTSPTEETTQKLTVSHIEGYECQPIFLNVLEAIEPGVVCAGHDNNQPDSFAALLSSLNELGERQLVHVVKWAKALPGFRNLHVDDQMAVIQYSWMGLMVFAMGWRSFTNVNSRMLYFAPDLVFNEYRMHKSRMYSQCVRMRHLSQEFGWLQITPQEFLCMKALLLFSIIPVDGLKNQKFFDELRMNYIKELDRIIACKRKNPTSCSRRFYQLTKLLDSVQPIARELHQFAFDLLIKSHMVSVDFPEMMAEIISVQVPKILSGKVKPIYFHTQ
Method: (§1) Cells were immunostained with an anti-AR antibody and 4′,6-diamidino-2-phenylindole (DAPI) to determine the nuclear location of the AR. FIG. 5D: CV-1 cells were transiently transfected in 48-well plates with 100 ng of luciferase reporter plasmid regulated by 3 androgen response elements (3ARE), 25 ng of pSV40 β-gal, or with or without 20 ng of the human AR expression vector. […] Then whole cell lysates were prepared to assess luciferase and β-gal activities. Transfection experiments were repeated three times in triplicate. Relative luciferase units (RLUs) were determined from three independent transfections and are presented as the mean+/−SEM.
(§2) Experiments were performed to assess the biological activity of IVMDHT. […] To determine the activity of IVMDHT in activating AR-mediated transcription, CV1 (FIG. 5D) and LNCaP cells (FIG. 5E) were transfected with an androgen-inducible luciferase reporter vector driven by AREs together either with or without the human AR expression vector.

[3] = target: T2, human AR (Homo sapiens, UniProt P10275); assay: Androgen-inducible (3ARE) luciferase reporter in CV-1 cells transfected with human AR expression vector; format: cell-based; conditions: CV1 cells, 1 nM and 10 nM, 24 hours
T2 construct: expressed in transfected cells; host or cells: CV-1
T2 sequence (P10275 1-920): T1 sequence (P10275 1-920 T878A) with A878T
Method: as §1, §2

[4] = target: T1, endogenous AR; assay: Androgen-inducible (3ARE) luciferase reporter in LNCaP cells, endogenous AR transcriptional activity; format: cell-based; conditions: no AR expression vector, 1 nM and 10 nM, 24 hours
Method: as §1, §2

[5] = target: T3, AR (Mus musculus, UniProt P19091); assay: microPET imaging in intact and castrated C57/B6 male mice; format: in vivo; conditions: 1.2 MBq intraperitoneal, images at 1, 2 and 6 hours
T3 construct: from tissue; host or cells: living C57/B6 male mice, intact or castrated; prostate and other organs
T3 sequence (P19091 1-899): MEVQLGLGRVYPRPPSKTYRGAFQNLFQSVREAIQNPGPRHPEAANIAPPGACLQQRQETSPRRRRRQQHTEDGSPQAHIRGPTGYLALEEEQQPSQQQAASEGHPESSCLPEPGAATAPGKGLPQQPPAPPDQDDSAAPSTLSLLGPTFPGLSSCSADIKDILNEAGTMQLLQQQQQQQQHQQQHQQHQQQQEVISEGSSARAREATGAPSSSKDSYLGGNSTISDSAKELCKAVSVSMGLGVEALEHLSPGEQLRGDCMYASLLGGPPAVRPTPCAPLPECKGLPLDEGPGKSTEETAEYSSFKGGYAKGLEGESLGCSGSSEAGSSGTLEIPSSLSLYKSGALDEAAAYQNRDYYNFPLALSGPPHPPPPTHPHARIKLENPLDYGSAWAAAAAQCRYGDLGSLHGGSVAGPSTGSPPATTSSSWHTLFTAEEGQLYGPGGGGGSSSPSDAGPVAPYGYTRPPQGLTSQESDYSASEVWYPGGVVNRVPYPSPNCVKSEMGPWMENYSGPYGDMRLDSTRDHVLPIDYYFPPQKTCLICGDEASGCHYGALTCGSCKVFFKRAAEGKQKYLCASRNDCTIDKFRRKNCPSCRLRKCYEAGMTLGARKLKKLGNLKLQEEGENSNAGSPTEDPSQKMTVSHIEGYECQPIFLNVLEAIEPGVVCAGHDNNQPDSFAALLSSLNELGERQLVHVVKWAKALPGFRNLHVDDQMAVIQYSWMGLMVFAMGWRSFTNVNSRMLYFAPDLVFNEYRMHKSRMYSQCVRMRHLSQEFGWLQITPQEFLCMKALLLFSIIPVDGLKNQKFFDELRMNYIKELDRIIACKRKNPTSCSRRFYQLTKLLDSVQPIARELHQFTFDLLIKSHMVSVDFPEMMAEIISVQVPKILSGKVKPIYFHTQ
Method: FIGS. 6A-6E. The androgen analog ^124IVMDHT was intravenously injected into the tail-vein of intact (FIG. 6A) and castrated mice (FIG. 6B) and imaged at 1 hour (FIG. 6A panel 1, FIG. 6B panel 1), 2 hours (FIG. 6A panel 2, FIG. 6B panel 2) and 6 hours (FIG. 6A panel 3, FIG. 6B panel 3). […] The mice were then analyzed at 1 hour (FIG. 6D panel 1, FIG. 6E panel 1), 2 hour (FIG. 6D panel 2, FIG. 6E panel 2) and 6 hours (FIG. 6D panel 3, FIG. 6E panel 3). Positive images are shown with arrows.
In this example, microPET imaging and biodistribution assays will be performed using three available and biologically relevant animal models to fully examine the specific binding affinity of IVMDHT with the AR in vivo. […] Tissue samples were weighed and counted and the results expressed as % ID/g and total counts per organ. […] The biodistribution results will be analyzed in prostate and other non-AR enrich tissues from intact and castrated mice to determine specific uptake of ^124IVMDHT.
To determine the specific binding affinity of IVMDHT with the AR in vivo, microPET imaging and biodistribution assays were performed. The binding specificity of ^124IVMDHT in 4-month-old castrated and intact C57/B6 male mice (n=4 per group) was evaluated. […]
Using a similar experimental approach, IVNDHT was assessed in C57/B6 male mice. […] The intake rate of ^124IVNDHT was further assessed by intraperitoneal injection. […]

Question: Which half-life [1] does the source give for C[C@]12CCC(=O)C[C@@H]1C[C@@H](/C=C/I)[C@@H]1[C@@H]2CC[C@]2(C)[C@@H](O)CC[C@@H]12 [IVDHT, 7α-(E-2′-iodovinyl)-5α-dihydrotestosterone] here?
Answer: Its half-life is roughly 1.5 h.

Question: With C[C@]12CCC(=O)C[C@@H]1C[C@@H](/C=C/I)[C@@H]1[C@@H]2CC[C@@]2(C)[C@H]1CC[C@]2(C)O [IVMDHT, 7α-(E-2′-iodovinyl)-17α-methyl-5α-dihydrotestosterone] as the molecule, how does the “nuclear location of the AR protein” value [2] read?
Answer: Its value is “uniform nuclear staining of the AR protein”.

Question: What about the AR-mediated luciferase activity [3] of the same molecule?
Answer: The AR-mediated luciferase activity was “increase in AR-mediated luciferase activity”.

Question: What about the AR-mediated luciferase activity [4] of the same molecule?
Answer: The AR-mediated luciferase activity was “increase in AR-mediated luciferase activity”.

Question: And the half-life [1]?
Answer: Its half-life is roughly 1.5 h.

Question: And the “microPET signal in the vicinity of the bladder/prostate” value [5]?
Answer: The value was “low dosage and intraperitoneal injections extend the specific intake”.

Question: For C[C@]12CC[C@@H]3C4CCC(=O)C[C@@H]4C[C@@H](/C=C/I)[C@H]3[C@@H]1CC[C@@H]2O (stereo partly drawn) [IVNDHT, 7α-(E-2′-iodovinyl)-19-nor-5α-dihydrotestosterone], which half-life [1] is on record?
Answer: The half-life was roughly 1.5 h.
